3 molecules from the NIST ThermoML archive (doi:10.1016/j.jct.2015.11.013) can be followed below.

This series can be described thus: cn = amount concentration of the nth substance listed, in mol/dm3. The conditions noted are these: 298.15 K, 101.3 kPa, Liquid, Taylor dispersion method.

Several values for one entry are separate records, joined by “and”; a condition that tells them apart may be missing. Equal values may be shown once.

Consider `CCCCCCCC(=O)O` [octanoic acid] + O, for which the binary diffusion coefficient was 1.19e-09 m2/s (c1 = 0.00075); 1.08e-09 m2/s (c1 = 0.001); 9.5e-10 m2/s (c1 = 0.0015); 8.72e-10 m2/s (c1 = 0.002); 8.49e-10 m2/s and 8.5e-10 m2/s (c1 = 0.0025).
For the molecule `CCCCCCCC(=O)[O-].[Na+]` [sodium octanoate] + O, the binary diffusion coefficient amounted to 8.56e-10 m2/s (c1 = 0.025); 8.54e-10 m2/s (c1 = 0.05); 8.52e-10 m2/s (c1 = 0.075); 8.51e-10 m2/s (c1 = 0.085); 8.5e-10 m2/s (c1 = 0.1).
Turning to `OC[C@H]1O[C@@H]2O[C@H]3[C@H](O)[C@@H](O)[C@@H](O[C@H]4[C@H](O)[C@@H](O)[C@@H](O[C@H]5[C@H](O)[C@@H](O)[C@@H](O[C@H]6[C@H](O)[C@@H](O)[C@@H](O[C@H]7[C@H](O)[C@@H](O)[C@@H](O[C@H]1[C@H](O)[C@H]2O)O[C@@H]7CO)O[C@@H]6CO)O[C@@H]5CO)O[C@@H]4CO)O[C@@H]3CO` [α-cyclodextrin] + O, the binary diffusion coefficient (c1 = 0.0025) is 3.53e-10 m2/s.
